Data from patent US12366576B2, “Compositions, assays, and methods for direct modulation of fatty acid metabolism” (Dana-Farber Cancer Institute, Inc., priority 2016, dated 2025).
Bridge positions count the residues as written; N and C are the ends. Square brackets hold non-standard residues; d marks the D form. Ends that are not written are not given here. Peptide text beside a SMILES is read from it. S5 = C=CCCC[C@](C)(N)C(=O)O

Experiments:
endogenous MCL-1 = experiment: Biotinylated SAHB pulldown from MEF lysates, anti-MCL-1 Western analysis; format: binding, mouse; conditions: for effect of alanine mutation on biotinylated MCL-1 SAHBD interaction with MCL-1: pull-downs from MEF lysates; for summary of binding properties: binding to MCL-1: pull-downs
Method: An exploratory proteomics analysis was conducted to identify proteins that interact with the MCL-1 BH3 domain helix. An extensive library of MCL-1 stapled BH3 peptides (FIG. 2) was generated to both identify novel protein interactors by mass spectrometry and then deploy the stapled peptide constructs as novel probes to dissect and pharmacologically modulate the identified protein interactors and associated signaling pathways. As an example, an N-terminally biotinylated stapled peptide designed based on the sequence of MCL-1's BH3 domain (Btn-MCL-1 SAHBD), or vehicle, was incubated with wild-type mouse embryonic fibroblast (MEF) lysates, followed by high stringency streptavidin capture. To validate the proteomics workflow and ensure that Btn-MCL-1 SAHBD could, in fact, engage protein interactors in a lysate, eluates were first run on a gel for anti-MCL-1 Western analysis. […] For mass spectrometry (MS) analysis, eluates were run on a reducing/denaturing gel followed by Coomassie staining (FIG. 4) and in-gel digestion was performed before injection on the instrument.
The binding determinants for the MCL-1 BH3/VLCAD interaction were investigated by generating a series of biotinylated MCL-1 SAHBD alanine point mutants (FIG. 18A) and performing streptavidin pull-downs from MEF lysates, followed by VLCAD and MCL-1 western analysis of the resulting eluates. […] Native alanines and residues not mutated are colored white.
Wild-type MEFs were trypsinized, washed once with cold PBS, and lysed on ice with NP-40 lysis buffer (50 mM Tris, pH 7.4, 150 mM NaCl, 0.5% (v/v) NP-40, complete protease inhibitor pellet (Roche)) using 1 ml of lysis buffer for every 10 million cells lysed. Cellular debris was pelleted at 14,000 g for 10 min at 4° C., and the supernatant was quantified using the BCA Protein Assay Kit (Thermo Fisher Scientific). 2 mg of lysate per pulldown were then exposed to 50 μL of pre-equilibrated High Capacity Streptavidin Agarose beads (Thermo Fisher Scientific). […] The beads were then pelleted and washed with NP-40 lysis buffer three times before eluting the protein sample from the beads by heating at 70° C. for 10 min in SDS loading buffer. Samples were then subjected to electrophoresis and either Western analysis or Coomassie stain (SimplyBlue Safe Stain, Thermo Fisher Scientific). […] Coomassie stained gels were then processed for proteomics analysis (see below). Biotinylated SAHB pulldowns of recombinant protein were performed as above incubating 5 nmol of SAHB with 10 pmol of rVLCAD in 500 μL total volume. Densitometry analyses were performed using ImageJ software.

VLCAD = target: T1, VLCAD (Homo sapiens, UniProt P49748); experiment: Isothermal calorimetry (ITC); format: binding; conditions: 80 μM recombinant VLCAD, injection of 100 μM peptide, 25° C.
T1 construct: 10x His (N); made in house; host or cells: E. coli BL21(DE3), pET19b
T1 sequence (P49748 40-655): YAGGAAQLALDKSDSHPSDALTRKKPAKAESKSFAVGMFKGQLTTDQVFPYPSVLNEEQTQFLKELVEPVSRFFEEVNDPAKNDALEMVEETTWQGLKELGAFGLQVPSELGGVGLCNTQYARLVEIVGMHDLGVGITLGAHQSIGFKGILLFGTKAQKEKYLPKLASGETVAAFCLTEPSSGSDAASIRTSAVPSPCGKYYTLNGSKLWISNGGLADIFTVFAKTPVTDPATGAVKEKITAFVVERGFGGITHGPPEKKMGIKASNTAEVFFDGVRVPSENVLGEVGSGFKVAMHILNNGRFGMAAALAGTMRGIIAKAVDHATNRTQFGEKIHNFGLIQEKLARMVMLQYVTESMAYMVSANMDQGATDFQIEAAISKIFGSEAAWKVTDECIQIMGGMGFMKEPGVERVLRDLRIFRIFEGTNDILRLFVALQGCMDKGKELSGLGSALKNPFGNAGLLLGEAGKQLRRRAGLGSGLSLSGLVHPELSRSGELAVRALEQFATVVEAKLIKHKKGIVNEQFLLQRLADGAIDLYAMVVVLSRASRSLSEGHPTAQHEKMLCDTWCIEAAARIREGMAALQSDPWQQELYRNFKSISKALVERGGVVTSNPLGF
Excerpt: The alanine mutant peptide panel was then utilized in an isothermal calorimetry (ITC)-based enthalpy screen to assess the relative binding activities of the different peptides to recombinant VLCAD protein (FIG. 19A). Although some differences in binding hierarchy were observed between the pull down (native protein) and ITC (purified recombinant protein) methods, those peptides displaying the strongest and weakest binding activity for VLCAD were similar between the two analyses.
VLCAD. Mature human VLCAD lacking its cleavable leader sequence (aa 40-655) (NP_000009.1) was subcloned into the pET19b vector (Novagen) using NdeI and XhoI restriction sites. Correct insertion was confirmed by DNA sequencing. The 10× His-tagged VLCAD construct was expressed in BL21(DE3) E. coli, and once cells reached an OD of 0.8 after growing at 37° C., they were induced with 0.5 mM […] (IPTG) (Gold Biotechnology I2481C) at 37° C. for 4 hours. Bacterial pellets were resuspended in lysis buffer (500 mM NaCl, 50 mM HEPES, 5% glycerol, pH 7.5, complete protease inhibitor tablet) and lysed by microfluidization (M-110L; Microfluidics). Cell lysates were then cleared by centrifugation at 20,000 rpm for 45 min (Beckman Avanti J-E, rotor type JA-20). Cleared cellular lysates were then subjected to Ni-NTA (QIAGEN) affinity chromatography, followed by elution with 300 mM imidazole (Sigma 12399) and overnight dialysis at 4° C. Dialyzed VLCAD was then concentrated and subjected to size exclusion chromatography (GE Healthcare Life Sciences Superdex 200 10/300 GL) at 4° C. using 150 mM NaCl, 50 mM Tris, pH 8.0. Protein was used upon isolation and was stored at 4° C. for up to two weeks. Successful protein production was confirmed by SDS-PAGE, Western blot, intact MS, and enzymatic activity assay.
A peptide enthalpy screen was performed by adding 80 μM of recombinant VLCAD to the cell in analysis buffer (20 mM HEPES, pH 7.5, 150 mM NaCl, 1 mM TCEP, and 1% DMSO), followed by injection of 2.0 μL of 100 μM peptide by syringe, using an Affinity ITC (TA instruments) at 25° C. Injections were performed in technical triplicate for each peptide. […] Data were analyzed with the NanoAnalyze software package (TA instruments) using a single binding site model and thermodynamic parameters calculated as follows: ΔG=ΔH−TΔS=−RTlnKB, where ΔG, ΔH, and ΔS are the changes in free energy, enthalpy and entropy of binding, respectively.

Compound | effect of alanine mutation on biotinylated MCL-1 SAHBD interaction with MCL-1 (endogenous MCL-1) | summary of binding properties: binding to MCL-1 (endogenous MCL-1) | relative binding activity for VLCAD (ITC enthalpy screen, consistent with pull down) (VLCAD) | relative binding activity for VLCAD (ITC enthalpy screen, consistent with pull down) (VLCAD; listed as MCL-1 SAHBD V220A)
CC(=O)N[C@@H](CCCNC(=N)N)C(=O)N[C@@H](CCCCN)C(=O)N[C@@H](C)C(=O)N[C@@H](CC(C)C)C(=O)N[C@@H](CCC(=O)O)C(=O)N[C@H](C(=O)N[C@@H](CC(C)C)C(=O)N[C@@H](CCCNC(=N)N)C(=O)N[C@@H](CCCNC(=N)N)C(=O)N[C@H](C(=O)NCC(=O)N[C@@H](CC(=O)O)C(=O)NCC(=O)N[C@@H](C)C(=O)N[C@@]1(C)CCCC=CCCC[C@@](C)(C(=O)N[C@H](C(=O)N[C@@H](C)C(=O)N[C@@H](Cc2ccccc2)C(N)=O)[C@@H](C)O)NC(=O)[C@H](Cc2c[nH]cn2)NC(=O)[C@H](CC(N)=O)NC(=O)[C@H](CCCNC(=N)N)NC1=O)C(C)C)[C@@H](C)O [V220A] (Ac-RKALETLRRVGDGA[S5]RNH[S5]TAF-NH2; staple 15-19; N-terminus and C-terminus assumed) | uniquely disruptive | weakly or not | robust binding | strongest binder
D218A: biotinylated MCL-1 SAHBD alanine point mutant D218A (RKALETLRRVGAGV[S5]RNH[S5]TAF; staple 15-19; also: biotinylated, place not given here) |  | Binds | robust binding | 
F228A: biotinylated MCL-1 SAHBD alanine point mutant F228A (RKALETLRRVGDGV[S5]RNH[S5]TAA; staple 15-19; also: biotinylated, place not given here) |  | Does not bind | weak VLCAD association | 
L213A: biotinylated MCL-1 SAHBD alanine point mutant L213A (RKALETARRVGDGV[S5]RNH[S5]TAF; staple 15-19; also: biotinylated, place not given here) | disrupted | Does not bind | weak VLCAD association | 
MCL-1 SAHBD: hydrocarbon-stapled peptide mimicking the MCL-1 BH3 domain (Stabilized Alpha-Helix of BCL-2 Domain), SEQ ID NO:19 (RKALETLRRVGDGV[S5]RNH[S5]TAF; staple 15-19) |  | Binds |  | 
R207A: biotinylated MCL-1 SAHBD alanine point mutant R207A (AKALETLRRVGDGV[S5]RNH[S5]TAF; staple 15-19; also: biotinylated, place not given here) |  | diminished binding | weak VLCAD association | 
R214A: biotinylated MCL-1 SAHBD alanine point mutant R214A (RKALETLARVGDGV[S5]RNH[S5]TAF; staple 15-19; also: biotinylated, place not given here) |  | Does not bind | weak VLCAD association | 
R215A: biotinylated MCL-1 SAHBD alanine point mutant R215A (RKALETLRAVGDGV[S5]RNH[S5]TAF; staple 15-19; also: biotinylated, place not given here) |  | Binds | weak VLCAD association | 
